From publication PMC9953660, “Using ΔK280 TauRD Folding Reporter Cells to Screen TRKB Agonists as Alzheimer’s Disease Treatment Strategy” (Biomolecules, 2023) come the findings set out here.

Molecules are shown by their SMILES.

One series in a line: MTT cell viability assay. The class given is cell-based. To be noted: human. The procedure:
Human neuroblastoma SH-SY5Y cells with inducible ΔK280 TauRD-DsRed expression were maintained in DMEM/F-12 supplemented with fetal bovine serum (FBS, 10%) (Thermo Scientific, Waltham, MA, USA), penicillin/streptomycin (100 U/mL), selection antibiotics hygromycin (100 μg/mL) and blasticidin (5 μg/mL) (InvivoGen, San Diego, CA, USA), and 1.5 g/l sodium bicarbonate. Cells were cultured at 37 °C in a 5% CO2 atmosphere. The cell viability of ZN and VB compounds (concentration range: 0.1–100 μM) was evaluated by a 3-(4,5-dimethylthiazol-2-yl)-2,5-diphenyltetrazolium bromide (MTT; Sigma-Aldrich) colorimetric assay. The absorbance at 570 nm was recorded by a Multiskan™ GO Microplate Spectrophotometer (Thermo Scientific).

Series [1] addresses T1, E. coli-expressed ΔK280 TauRD protein (Homo sapiens, UniProt P10636, DEL597-597).
T1 construct: TauRD (Q^244-E^372 of Tau, NP_005901) aggregation; N-terminal Met (N); made in house; host or cells: E. coli
Put plainly: Thioflavin T fluorescence ΔK280 TauRD aggregation assay. The class given is biochemical. To be noted: TauRD protein 20 μM, 48 h at 37 °C; read-out: EC50 inhibiting ΔK280 TauRD aggregation. On the procedure: The anti-aggregation activity of congo red (positive control) and ZN/VB compounds (5–20 μM) was assessed using E. coli-expressed ΔK280 TauRD protein [33] and thioflavin T (Sigma-Aldrich) fluorescence assay. The trend of ΔK280 TauRD amyloid aggregate formation depicted with enhanced and red-shifted fluorescence was recorded by a FLx800 microplate fluorescence reader (BioTek Instruments), where the procedure was previously reported in detail.

Series [2] addresses T2, TRKB extracellular domain (TRKB-ECD) (Homo sapiens, UniProt Q16620).
T2 construct: TRKB-ECD (marked in red, C^32-E^429, XP_016870240); His (C); made in house; host or cells: Pichia pastoris
The experiment in a line: Tryptophan fluorescence quenching assay. To be noted: Pichia pastoris-expressed TRKB-ECD, 0–1000 nM, excitation 295 nm, emission 330 nm, room temperature; read-out: KD (TRKB-ECD binding affinity). On the procedure:
The interaction between the N-terminal extracellular domain of TRKB (TRKB-ECD) and 7,8-DHF (as positive control; [35]), ZN-015, VB-030 or VB-037 was evaluated with tryptophan fluorescence titration. TRKB-ECD-His protein was expressed in the Pichia expression system (Invitrogen) and purified as stated. Intrinsic tryptophan fluorescence spectra with titration of a different concentration of compounds (0–1000 nM) were recorded by fluorescence spectrophotometer F-7000 (Hitachi, Tokyo, Japan), with excitation wavelength 295 nm and emission wavelength in the range of 300–400 nm. The calculation of dissociation constant (KD) between the 7,8-DHF or ZN/VB compound and TRKB was described in a previous report.

T2 sequence (Q16620 32-429): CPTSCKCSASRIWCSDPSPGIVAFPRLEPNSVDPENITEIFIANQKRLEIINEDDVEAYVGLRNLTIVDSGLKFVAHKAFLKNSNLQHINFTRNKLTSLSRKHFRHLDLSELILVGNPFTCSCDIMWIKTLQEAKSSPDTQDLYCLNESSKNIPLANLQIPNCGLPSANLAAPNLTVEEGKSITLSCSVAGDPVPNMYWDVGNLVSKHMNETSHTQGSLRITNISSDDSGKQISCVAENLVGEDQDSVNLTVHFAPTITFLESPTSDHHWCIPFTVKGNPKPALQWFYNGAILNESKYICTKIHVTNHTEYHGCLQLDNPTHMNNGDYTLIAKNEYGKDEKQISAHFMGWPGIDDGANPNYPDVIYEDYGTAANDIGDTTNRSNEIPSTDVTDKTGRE
T1 sequence (P10636 with tags, fused parts or gaps isoform P10636-8 DEL280-280): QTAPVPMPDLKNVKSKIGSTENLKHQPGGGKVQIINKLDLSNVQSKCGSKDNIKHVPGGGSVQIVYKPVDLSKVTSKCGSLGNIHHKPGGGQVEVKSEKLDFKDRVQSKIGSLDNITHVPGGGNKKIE

What is called IC50 is the point on the concentration scale where inhibition reaches its midpoint. As a reminder, the EC50 is the concentration giving half of the maximal effect. One may read the Kd as the equilibrium constant for the complex coming apart. Regarding `O=C(/C=C/c1ccccc1O)c1c(O)c2ccccc2oc1=O` [ZN-015, (E)-4-hydroxy-3-(3-(2-hydroxyphenyl)acryloyl)-2H-chromen-2-one], half-maximal inhibition in “MTT cell viability assay” (IC50 at 24 h) was put at 77 µM. In series [1], the EC50 was found to be 13.2 µM. In addition, in series [2], the Kd was found to be 0.0122 ± 0.0094 µM.
